Values quoted from earlier work, collected in patent US20230301959A1, “COMBINATIONS OF CARNOSINE AND ZINC FOR THE TREATMENT AND PREVENTION OF VIRAL INFECTIONS” (priority 2020, published 2023).

Experiments:
[1] = test system: H9N2 influenza virus; settings: mouse, in vivo, po, 10 mg/kg
[2] = test system: Dengue and Zika virus; settings: liver cell culture
[3] = dietary administration
[4] = target: rhinovirus 3C protease (Human rhinovirus 14, UniProt P03303)
[5] = target: poliovirus 3C protease (Poliovirus type 1, UniProt P03300)
[6] = test system: human rhinovirus; settings: infected cells
[7] = test system: coxsackievirus B3; settings: infected cells
[8] = target: T1, viral RNA-dependent RNA polymerase (RdRp) from rhinoviruses (Human rhinovirus 16, UniProt Q82122)
T1 construct: viral RNA-dependent RNA polymerase (RdRp) from rhinoviruses and hepatitis C

[9] = test system: viral RNA-dependent RNA polymerase (RdRp) from hepatitis C
[10] = target: coronavirus RNA polymerase (Severe acute respiratory syndrome coronavirus, UniProt P0C6X7)
[11] = target: T2, arterivirus RNA polymerase (Equine arteritis virus, UniProt P19811); settings: in vitro
T2 sequence (P19811 1678-2370 limits assumed): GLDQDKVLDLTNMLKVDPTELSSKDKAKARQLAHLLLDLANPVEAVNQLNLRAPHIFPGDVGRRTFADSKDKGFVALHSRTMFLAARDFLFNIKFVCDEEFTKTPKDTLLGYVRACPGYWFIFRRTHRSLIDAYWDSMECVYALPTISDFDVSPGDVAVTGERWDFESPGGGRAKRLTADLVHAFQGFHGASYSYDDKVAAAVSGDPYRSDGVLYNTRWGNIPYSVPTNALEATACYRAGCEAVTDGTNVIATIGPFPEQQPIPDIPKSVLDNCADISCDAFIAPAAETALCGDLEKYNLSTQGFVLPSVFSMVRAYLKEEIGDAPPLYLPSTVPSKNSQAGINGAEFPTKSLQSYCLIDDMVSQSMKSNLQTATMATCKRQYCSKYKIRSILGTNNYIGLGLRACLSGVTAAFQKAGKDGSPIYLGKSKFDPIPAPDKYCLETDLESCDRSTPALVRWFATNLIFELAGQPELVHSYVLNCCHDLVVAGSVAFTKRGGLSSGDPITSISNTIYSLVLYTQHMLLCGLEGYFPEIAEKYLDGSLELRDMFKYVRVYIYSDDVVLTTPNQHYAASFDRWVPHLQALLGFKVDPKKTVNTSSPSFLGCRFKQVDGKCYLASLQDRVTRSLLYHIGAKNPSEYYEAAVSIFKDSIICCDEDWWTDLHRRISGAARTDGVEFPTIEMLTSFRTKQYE

Chain of rhinovirus 3C protease (P03303 1538-1719 limits assumed): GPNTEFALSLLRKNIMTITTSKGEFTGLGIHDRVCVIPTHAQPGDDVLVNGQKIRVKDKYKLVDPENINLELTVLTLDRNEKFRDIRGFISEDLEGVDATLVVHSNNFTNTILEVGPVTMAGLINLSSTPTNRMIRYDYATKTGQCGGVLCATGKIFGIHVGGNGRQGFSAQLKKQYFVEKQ
Chain of poliovirus 3C protease (P03300 1566-1748 limits assumed): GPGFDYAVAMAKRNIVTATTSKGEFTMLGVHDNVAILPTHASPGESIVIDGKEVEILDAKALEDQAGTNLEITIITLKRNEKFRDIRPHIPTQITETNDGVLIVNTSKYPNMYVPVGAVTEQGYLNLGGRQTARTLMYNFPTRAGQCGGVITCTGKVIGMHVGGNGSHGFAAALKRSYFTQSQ
T1 sequence (Q82122 1694-2153 limits assumed): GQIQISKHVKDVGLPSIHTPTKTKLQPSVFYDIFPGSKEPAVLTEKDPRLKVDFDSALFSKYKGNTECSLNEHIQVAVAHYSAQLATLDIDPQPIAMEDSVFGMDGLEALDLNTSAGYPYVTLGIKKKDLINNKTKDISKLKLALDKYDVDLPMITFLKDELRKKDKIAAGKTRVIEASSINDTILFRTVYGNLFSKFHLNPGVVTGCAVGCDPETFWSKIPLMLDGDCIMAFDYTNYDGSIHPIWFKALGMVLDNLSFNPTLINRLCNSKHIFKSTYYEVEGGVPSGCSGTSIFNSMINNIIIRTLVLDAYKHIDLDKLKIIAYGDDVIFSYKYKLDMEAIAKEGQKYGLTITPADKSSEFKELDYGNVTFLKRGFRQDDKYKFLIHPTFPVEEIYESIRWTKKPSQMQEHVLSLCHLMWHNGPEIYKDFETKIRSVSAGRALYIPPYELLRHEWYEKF

In the case of `NCCC(=O)N[C@@H](Cc1cnc[nH]1)C(=O)O` [carnosine, β-alanyl-L-histidine], the “levels of TNF-a, IL-1b, TLR-4 mRNA and protein” value [1] is given as “significantly reduced”, the “lung wet mass ratio” value [1] is given as “decreased” and the myeloperoxidase activity [1] is given as “reduced”. For the same compound, the overall mortality [1] was 43%, the pathological lung lesions [1] was “improvement” and the “cell viability post infection” value [2] was “ameliorate”. The viral genome replication [2] was “significantly inhibit”, the “early atherosclerotic lesion formation” value [3] was “prevent” and the renal disease [3] was “attenuating”. The “safety of regular administration” value (2-4 months, in combination with forskolin, homotaurine, vitamins B1, B2, B6, folic acid, magnesium, different age groups) was “safe” and the tolerability (2 weeks, obese patients with Type-II diabetes and Gulf-War Veterans, without any reported adverse reactions) was “well tolerated”.
In the case of `[Zn+2]` [zinc ion], the protease activity [4] is given as “inhibited”, the protease activity [5] is given as “inhibited” and the polyprotein processing [6] is given as “inhibited”. For the same compound, the polyprotein processing [7] was “inhibited”, the “activity of RdRp” value [8] was “inhibitory effect” and the “activity of RdRp” value [9] was “inhibitory effect”. For the same compound, the RNA polymerase activity [10] was “inhibits” and the RNA polymerase activity [11] was “inhibits”.
